Assay results published in BindingDB's records for patent US11707539 (Tufts College, 2023).
Where “and” joins values, the source holds several entries; their conditions need not be identical. Equal entries are not always repeated. Where a SMILES comes first, the peptide text is derived from it.

Legend:
Test in all cases: In Vitro Assay Dipeptidyl Peptidase IV. Fibroblast Activation Protein and Prolyl Oligopeptidase
Dipeptidyl peptidase 4 = Dipeptidyl peptidase 4 (Homo sapiens, UniProt P27487)
Protocol: (§1) The purpose of this assay is to determine the IC50 of various inhibitors against recombinant human dipeptidyl peptidase IV (DPPIV), fibroblast activation protein (FAP) or prolyl oligopeptidase (PREP). The assays are conducted in the following steps:1 Dissolve the compound in DMSO to a final concentration of […]. […] Serial dilute (1:10) the 1 mM compound stocks prepared previously into the appropriate assay buffer (FAP: 50 mM Tris, 140 mM NaCl, pH 7.5/PREP: 25 mM Tris, 0.25 M NaCl, pH 7.5/DPPIV: 25 mM Tris, pH 8.0) to one row of a 96-well plate. 3. […] 4. Dilute the enzymes into their appropriate assay buffers. The final enzyme concentrations should be 0.1, 1.2, and 0.6 nM for DPPIV, FAP and PREP respectively. Add 180 μL to each well needed in columns 2-10. Column 1 (A,B,C) should be prepared with 200 ul of appropriate assay buffer as control. Column 1 (D,E,F,G,H) should be prepared with 20 ul of appropriate assay buffer and 180 ul enzyme as no inhibitor control. 5. Add 20 μL of the compound of interest from the dilution plate prepared in step 2 to columns 2-10 of the assay plate where appropriate. Each sample should be tested in triplicate. Allow this to incubate for 10 minutes at room temperature, shaking the plate for the first two minutes. 6. Add 10 μL of 20× substrate prepared in step 3 to each well and allow this to incubate for 15 minutes at room temperature, shaking the plate for the first two minutes. 7. Read the fluorescence at λex: 380, λem: 460.

Prolyl endopeptidase = biological target: T1, Prolyl endopeptidase (Homo sapiens, UniProt P48147)
T1 sequence (P48147 whole entry): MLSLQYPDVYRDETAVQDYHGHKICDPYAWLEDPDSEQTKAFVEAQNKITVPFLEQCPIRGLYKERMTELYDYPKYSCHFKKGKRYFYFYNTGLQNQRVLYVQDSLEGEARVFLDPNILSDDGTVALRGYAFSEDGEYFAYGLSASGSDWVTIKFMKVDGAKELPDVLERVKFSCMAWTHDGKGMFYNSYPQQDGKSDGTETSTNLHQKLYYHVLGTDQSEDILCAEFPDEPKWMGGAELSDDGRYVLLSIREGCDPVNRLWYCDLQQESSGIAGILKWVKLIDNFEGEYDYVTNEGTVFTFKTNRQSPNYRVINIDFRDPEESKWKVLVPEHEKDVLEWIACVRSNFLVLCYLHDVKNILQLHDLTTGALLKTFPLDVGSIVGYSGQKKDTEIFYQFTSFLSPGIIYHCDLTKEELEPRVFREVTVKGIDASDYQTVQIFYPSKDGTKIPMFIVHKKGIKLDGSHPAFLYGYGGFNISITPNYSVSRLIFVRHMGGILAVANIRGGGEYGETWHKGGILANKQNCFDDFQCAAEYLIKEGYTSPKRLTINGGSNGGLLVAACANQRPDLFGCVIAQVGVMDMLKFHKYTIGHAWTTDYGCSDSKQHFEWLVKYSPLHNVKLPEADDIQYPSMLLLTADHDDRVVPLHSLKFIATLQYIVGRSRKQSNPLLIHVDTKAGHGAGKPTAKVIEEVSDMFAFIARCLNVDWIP
Protocol: as §1

Prolyl endopeptidase FAP = biological target: T2, Prolyl endopeptidase FAP (Homo sapiens, UniProt Q12884)
T2 sequence (Q12884 whole entry): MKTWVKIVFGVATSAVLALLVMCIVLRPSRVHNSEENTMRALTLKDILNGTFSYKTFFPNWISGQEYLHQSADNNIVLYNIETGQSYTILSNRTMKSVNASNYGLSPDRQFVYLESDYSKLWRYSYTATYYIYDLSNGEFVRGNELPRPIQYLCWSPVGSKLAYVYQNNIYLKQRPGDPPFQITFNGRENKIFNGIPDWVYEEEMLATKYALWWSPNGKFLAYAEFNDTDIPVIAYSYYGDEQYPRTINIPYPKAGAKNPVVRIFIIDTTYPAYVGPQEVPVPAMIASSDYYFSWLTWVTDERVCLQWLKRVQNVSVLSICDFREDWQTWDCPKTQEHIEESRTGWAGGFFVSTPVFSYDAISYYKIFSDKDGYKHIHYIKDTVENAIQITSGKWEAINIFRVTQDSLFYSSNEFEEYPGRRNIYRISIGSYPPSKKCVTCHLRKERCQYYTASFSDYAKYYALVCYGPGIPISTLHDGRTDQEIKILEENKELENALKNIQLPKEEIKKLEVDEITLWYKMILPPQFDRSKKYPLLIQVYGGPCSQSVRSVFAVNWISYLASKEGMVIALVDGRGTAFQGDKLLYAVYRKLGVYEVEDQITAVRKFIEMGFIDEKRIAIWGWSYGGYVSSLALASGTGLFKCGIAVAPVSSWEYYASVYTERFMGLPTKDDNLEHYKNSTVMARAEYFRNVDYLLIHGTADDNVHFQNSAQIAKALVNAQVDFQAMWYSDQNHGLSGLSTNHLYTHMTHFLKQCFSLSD
Protocol: as §1

Sequence of Dipeptidyl peptidase 4 (P27487 whole entry): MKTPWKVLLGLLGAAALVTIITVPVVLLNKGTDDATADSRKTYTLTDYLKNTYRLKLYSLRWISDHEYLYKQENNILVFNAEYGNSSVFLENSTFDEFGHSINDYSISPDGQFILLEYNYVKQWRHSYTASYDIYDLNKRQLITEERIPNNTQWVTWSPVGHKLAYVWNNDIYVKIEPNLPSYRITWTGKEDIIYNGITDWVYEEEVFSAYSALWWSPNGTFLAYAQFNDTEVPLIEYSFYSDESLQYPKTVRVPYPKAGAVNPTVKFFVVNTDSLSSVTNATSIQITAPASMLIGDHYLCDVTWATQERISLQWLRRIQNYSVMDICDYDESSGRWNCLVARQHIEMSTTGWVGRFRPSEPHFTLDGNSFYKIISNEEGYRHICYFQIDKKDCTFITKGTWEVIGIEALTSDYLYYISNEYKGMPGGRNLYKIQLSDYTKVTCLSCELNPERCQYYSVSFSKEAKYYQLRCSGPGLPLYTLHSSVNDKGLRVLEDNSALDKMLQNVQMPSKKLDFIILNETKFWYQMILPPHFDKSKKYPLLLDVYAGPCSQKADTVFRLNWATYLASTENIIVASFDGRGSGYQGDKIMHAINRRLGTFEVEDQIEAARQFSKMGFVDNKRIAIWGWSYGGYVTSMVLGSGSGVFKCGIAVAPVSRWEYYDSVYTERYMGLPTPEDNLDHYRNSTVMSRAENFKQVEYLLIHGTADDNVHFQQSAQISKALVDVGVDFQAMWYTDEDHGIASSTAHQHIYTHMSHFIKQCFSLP

SMILES | IC50 (Dipeptidyl peptidase 4) [nM] | IC50 (Prolyl endopeptidase) [nM] | IC50 (Prolyl endopeptidase FAP)
CC(C)[C@H](NC(=O)CNC(=O)CNC(=O)CN1CCN(CC(=O)O)CCN(CC(=O)O)CCN(CC(=O)O)CC1)C(=O)N[C@H](C)C(=O)N1CCC[C@H]1B(O)O [US11707539, Compound 6522] (HELM PEPTIDE1{[O=C(O)CN1CCN(CC(=O)O)CCN(CC(=O)[*:2])CCN(CC(=O)O)CC1].G.G.V.[dA].[OB(O)[C@@H]1CCCN1[*:1]]}$$$$V2.0) | > 100000 | 13000 | 3.5 nM and 12 nM
N[C@@H](CCCCNC(=O)CCCNC(=O)CN1CCN(CC(=O)O)CCN(CC(=O)O)CCN(CC(=O)O)CC1)C(=O)N1CCC[C@H]1B(O)O [US11707539, Compound 6551] |  |  | 2.6 nM and 2 nM
